Measured values as given in patent US8921362B2, “6,7-dialkoxy quinazoline derivatives and methods of treating drug resistant and other tumors” (Natco Pharma Limited, priority 2008, dated 2014).

Legend:
Assay in all cases: KinomeScan
Type in all cases: binding
Conditions in all cases: read-out: % Ctrl @ 10000 nM
[1] = target: T1, ABL1(H396P) (Homo sapiens, UniProt P00519, H396P)
T1 construct: host or cells: E. coli (BL21-derived), T7 phage lysate
Method in brief: (§1)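 In this phage-display binding screen, compound competes with immobilized ligand for the kinase fusion, and bead-bound phage, eluted after washing, is titered by qPCR.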

[2] = target: T2, ABL1(T315I) (Homo sapiens, UniProt P00519, T315I)
T2 construct: host or cells: E. coli (BL21-derived), T7 phage lysate
Method in brief: as §1

[3] = target: T3, ABL1(Y253F) (Homo sapiens, UniProt P00519, Y253F)
T3 construct: host or cells: E. coli (BL21-derived), T7 phage lysate
Method in brief: as §1

[4] = target: T4, ACVR1B (Homo sapiens, UniProt P36896)
T4 construct: host or cells: E. coli (BL21-derived), T7 phage lysate
Method in brief: as §1

[5] = target: T5, ADCK3 (Homo sapiens, UniProt Q8NI60)
T5 construct: host or cells: E. coli (BL21-derived), T7 phage lysate
Method in brief: as §1

[6] = target: T6, AURKB (Homo sapiens, UniProt Q96GD4)
T6 construct: host or cells: E. coli host derived from BL21
Method in brief: as §1

[7] = target: T7, BMPR1B (Homo sapiens, UniProt O00238)
T7 construct: host or cells: E. coli host derived from BL21
Method in brief: as §1

[8] = target: T8, CAMK2A (Homo sapiens, UniProt Q9UQM7)
T8 construct: host or cells: E. coli host derived from BL21
Method in brief: as §1

[9] = target: T9, CAMK4 (Homo sapiens, UniProt Q16566)
T9 construct: host or cells: T7 phage in E. coli host derived from BL21
Method in brief: as §1

[10] = target: T10, CDC2L2 (Homo sapiens, UniProt Q9UQ88)
T10 construct: host or cells: T7 phage in E. coli host derived from BL21
Method in brief: as §1

[11] = target: T11, CDK7 (Homo sapiens, UniProt P50613)
T11 construct: host or cells: T7 phage in E. coli host derived from BL21
Method in brief: as §1

[12] = target: T12, CDKL2 (Homo sapiens, UniProt Q92772)
T12 construct: host or cells: T7 phage in E. coli host derived from BL21
Method in brief: as §1

[13] = target: T13, CSNK1E (Homo sapiens, UniProt P49674)
T13 construct: host or cells: T7 phage in E. coli host derived from BL21
Method in brief: as §1

[14] = target: T14, CSNK1G1 (Homo sapiens, UniProt Q9HCP0)
T14 construct: purchased Ambit Biosciences Corp (KinomeScan); host or cells: T7 phage in E. coli host derived from BL21
Method in brief: as §1

[15] = target: T15, DCAMKL2 (Homo sapiens, UniProt Q8N568)
T15 construct: purchased Ambit Biosciences Corp (KinomeScan); host or cells: T7 phage in E. coli host derived from BL21
Method in brief: as §1

[16] = target: T16, DCAMKL3 (Homo sapiens, UniProt Q9C098)
T16 construct: purchased Ambit Biosciences Corp (KinomeScan); host or cells: T7 phage in E. coli host derived from BL21
Method in brief: as §1

[17] = target: T17, EGFR(G719C) (Homo sapiens, UniProt P00533, G719C)
T17 construct: purchased Ambit Biosciences Corp (KinomeScan); host or cells: T7 phage in E. coli host derived from BL21
Method in brief: as §1

[18] = target: T18, EGFR(L747-E749del, A750P) (Homo sapiens, UniProt P00533, A750P/DEL747-749)
T18 construct: purchased Ambit Biosciences Corp (KinomeScan); host or cells: T7 phage in E. coli host derived from BL21
Method in brief: as §1

[19] = target: T19, FGFR2 (Homo sapiens, UniProt P21802)
T19 construct: host or cells: T7 phage in E. coli host derived from BL21
Method in brief: as §1

[20] = target: T20, IGF1R (Homo sapiens, UniProt P08069)
T20 construct: host or cells: T7 phage grown in E. coli host derived from BL21
Method in brief: as §1

[21] = target: T21, JNK2 (Homo sapiens, UniProt P45984)
T21 construct: host or cells: T7 phage grown in E. coli host derived from BL21
Method in brief: as §1

[22] = target: T22, MARK4 (Homo sapiens, UniProt Q96L34)
T22 construct: host or cells: E. coli host derived from the BL21 strain, infected with T7 phage
Method in brief: as §1

[23] = target: T23, MEK3 (Homo sapiens, UniProt P46734)
T23 construct: host or cells: E. coli host derived from the BL21 strain, infected with T7 phage
Method in brief: as §1

[24] = target: T24, MEK4 (Homo sapiens, UniProt P45985)
T24 construct: host or cells: E. coli host derived from the BL21 strain, infected with T7 phage
Method in brief: as §1

[25] = target: T25, MST3 (Homo sapiens, UniProt Q9Y6E0)
T25 construct: host or cells: T7 phage grown in E. coli host derived from BL21
Method in brief: as §1

[26] = target: T26, NEK1 (Homo sapiens, UniProt Q96PY6)
T26 construct: host or cells: T7 phage grown in E. coli host derived from BL21
Method in brief: as §1

[27] = target: T27, PIK3CB (Homo sapiens, UniProt P42338)
T27 construct: host or cells: E. coli host derived from BL21, infected with T7 phage
Method in brief: as §1

[28] = target: T28, RIOK3 (Homo sapiens, UniProt O14730)
T28 construct: host or cells: E. coli host derived from BL21, T7 phage display
Method in brief: as §1

[29] = target: T29, SNARK (Homo sapiens, UniProt Q9H093)
T29 construct: host or cells: T7 phage grown in E. coli (BL21-derived)
Method in brief: as §1

[30] = target: T30, STK36 (Homo sapiens, UniProt Q9NRP7)
T30 construct: host or cells: T7 phage grown in E. coli (BL21-derived)
Method in brief: as §1

[31] = target: T31, TGFBR2 (Homo sapiens, UniProt P37173)
T31 construct: host or cells: T7 phage grown in E. coli (BL21-derived)
Method in brief: as §1

[32] = target: T32, TNK1 (Homo sapiens, UniProt Q13470)
T32 construct: host or cells: E. coli host derived from BL21, T7 phage
Method in brief: as §1

[33] = target: T33, TXK (Homo sapiens, UniProt P42681)
T33 construct: host or cells: E. coli host derived from BL21, T7 phage
Method in brief: as §1

[34] = target: T34, WEE2 (Homo sapiens, UniProt P0C1S8)
T34 construct: host or cells: E. coli host derived from BL21, T7 phage
Method in brief: as §1

T27 sequence (P42338 whole entry): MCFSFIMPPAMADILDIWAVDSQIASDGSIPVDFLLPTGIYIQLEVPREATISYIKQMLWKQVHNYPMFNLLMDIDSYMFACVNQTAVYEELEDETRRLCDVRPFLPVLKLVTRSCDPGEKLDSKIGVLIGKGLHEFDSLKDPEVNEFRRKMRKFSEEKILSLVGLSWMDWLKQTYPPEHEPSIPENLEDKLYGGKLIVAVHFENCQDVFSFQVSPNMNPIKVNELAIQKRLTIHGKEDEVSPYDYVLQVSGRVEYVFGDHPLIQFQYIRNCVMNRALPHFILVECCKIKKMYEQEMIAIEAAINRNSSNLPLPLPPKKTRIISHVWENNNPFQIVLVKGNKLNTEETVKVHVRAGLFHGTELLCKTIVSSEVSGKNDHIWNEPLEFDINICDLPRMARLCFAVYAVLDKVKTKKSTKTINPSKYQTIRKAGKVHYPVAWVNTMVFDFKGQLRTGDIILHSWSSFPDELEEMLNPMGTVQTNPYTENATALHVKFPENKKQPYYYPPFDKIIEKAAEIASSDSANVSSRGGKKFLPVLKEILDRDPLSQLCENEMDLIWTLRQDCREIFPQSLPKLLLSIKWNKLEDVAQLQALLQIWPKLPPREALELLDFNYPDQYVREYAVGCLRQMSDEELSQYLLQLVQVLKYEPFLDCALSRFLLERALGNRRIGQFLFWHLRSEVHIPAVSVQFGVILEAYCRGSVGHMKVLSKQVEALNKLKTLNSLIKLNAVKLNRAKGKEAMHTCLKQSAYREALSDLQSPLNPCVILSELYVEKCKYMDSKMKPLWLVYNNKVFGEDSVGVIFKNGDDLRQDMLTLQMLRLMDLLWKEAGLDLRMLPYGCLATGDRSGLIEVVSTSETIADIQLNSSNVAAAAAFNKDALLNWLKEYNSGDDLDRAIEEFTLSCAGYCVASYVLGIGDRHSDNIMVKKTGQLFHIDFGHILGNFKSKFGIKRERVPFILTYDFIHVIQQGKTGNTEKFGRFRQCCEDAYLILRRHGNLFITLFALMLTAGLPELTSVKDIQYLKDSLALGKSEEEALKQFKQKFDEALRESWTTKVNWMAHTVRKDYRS
T16 sequence (Q9C098 whole entry): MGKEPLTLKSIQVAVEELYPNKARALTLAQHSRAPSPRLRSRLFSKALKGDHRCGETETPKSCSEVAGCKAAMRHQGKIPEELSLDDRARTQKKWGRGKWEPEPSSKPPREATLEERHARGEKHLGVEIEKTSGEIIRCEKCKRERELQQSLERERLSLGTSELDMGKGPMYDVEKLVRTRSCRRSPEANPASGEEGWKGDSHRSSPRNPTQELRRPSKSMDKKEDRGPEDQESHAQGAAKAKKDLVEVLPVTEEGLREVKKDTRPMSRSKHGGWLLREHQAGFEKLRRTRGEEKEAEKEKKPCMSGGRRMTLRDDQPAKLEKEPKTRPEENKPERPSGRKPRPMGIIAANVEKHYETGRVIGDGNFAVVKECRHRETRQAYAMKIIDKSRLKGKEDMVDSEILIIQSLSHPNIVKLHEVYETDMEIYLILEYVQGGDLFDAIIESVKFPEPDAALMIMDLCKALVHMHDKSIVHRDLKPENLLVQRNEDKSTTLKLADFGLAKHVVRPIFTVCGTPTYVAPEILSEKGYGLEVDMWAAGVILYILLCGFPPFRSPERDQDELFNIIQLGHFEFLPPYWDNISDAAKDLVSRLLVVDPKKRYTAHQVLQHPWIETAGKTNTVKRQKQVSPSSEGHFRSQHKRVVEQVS
T32 sequence (Q13470 whole entry): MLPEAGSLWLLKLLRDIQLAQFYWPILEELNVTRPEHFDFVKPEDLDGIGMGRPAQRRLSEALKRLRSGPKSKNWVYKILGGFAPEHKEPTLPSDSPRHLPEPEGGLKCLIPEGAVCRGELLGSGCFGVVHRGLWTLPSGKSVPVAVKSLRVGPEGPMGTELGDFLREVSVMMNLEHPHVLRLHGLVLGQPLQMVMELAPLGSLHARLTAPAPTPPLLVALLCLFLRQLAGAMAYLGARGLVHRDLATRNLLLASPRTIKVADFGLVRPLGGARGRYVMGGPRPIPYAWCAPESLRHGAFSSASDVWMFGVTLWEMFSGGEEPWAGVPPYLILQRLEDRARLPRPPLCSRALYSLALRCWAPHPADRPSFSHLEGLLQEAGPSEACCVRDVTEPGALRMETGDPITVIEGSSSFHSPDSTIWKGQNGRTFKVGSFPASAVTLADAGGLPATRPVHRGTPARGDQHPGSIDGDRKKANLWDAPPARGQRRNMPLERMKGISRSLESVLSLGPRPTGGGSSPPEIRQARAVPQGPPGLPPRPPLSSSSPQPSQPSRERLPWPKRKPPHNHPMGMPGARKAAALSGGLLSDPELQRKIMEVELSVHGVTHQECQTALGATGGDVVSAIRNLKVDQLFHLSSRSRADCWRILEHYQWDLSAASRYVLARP
T31 sequence (P37173 23-567): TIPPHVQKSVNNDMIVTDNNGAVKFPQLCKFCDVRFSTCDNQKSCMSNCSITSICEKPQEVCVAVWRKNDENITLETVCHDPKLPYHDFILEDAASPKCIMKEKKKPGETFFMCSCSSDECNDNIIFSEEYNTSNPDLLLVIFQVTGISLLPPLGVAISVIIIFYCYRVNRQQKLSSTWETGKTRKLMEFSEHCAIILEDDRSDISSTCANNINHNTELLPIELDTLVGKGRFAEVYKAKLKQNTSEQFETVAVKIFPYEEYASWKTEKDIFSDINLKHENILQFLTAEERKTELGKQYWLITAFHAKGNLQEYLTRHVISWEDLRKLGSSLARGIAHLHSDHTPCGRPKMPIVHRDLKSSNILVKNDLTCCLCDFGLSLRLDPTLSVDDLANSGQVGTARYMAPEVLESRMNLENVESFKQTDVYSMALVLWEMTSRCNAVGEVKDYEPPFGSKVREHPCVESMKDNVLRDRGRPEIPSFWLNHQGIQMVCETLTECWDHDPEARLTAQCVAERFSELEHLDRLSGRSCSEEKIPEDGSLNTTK
T25 sequence (Q9Y6E0 whole entry): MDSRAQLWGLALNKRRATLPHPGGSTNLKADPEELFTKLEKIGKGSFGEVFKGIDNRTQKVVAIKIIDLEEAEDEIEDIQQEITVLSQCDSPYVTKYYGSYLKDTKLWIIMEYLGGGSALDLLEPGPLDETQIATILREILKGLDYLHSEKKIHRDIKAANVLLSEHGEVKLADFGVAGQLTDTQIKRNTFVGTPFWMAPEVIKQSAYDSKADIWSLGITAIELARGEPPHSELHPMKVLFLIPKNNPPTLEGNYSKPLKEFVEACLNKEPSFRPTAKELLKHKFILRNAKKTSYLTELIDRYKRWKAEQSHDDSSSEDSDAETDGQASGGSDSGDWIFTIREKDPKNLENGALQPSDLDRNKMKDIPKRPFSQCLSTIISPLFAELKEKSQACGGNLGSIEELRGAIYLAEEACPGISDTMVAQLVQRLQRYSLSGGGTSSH
T22 sequence (Q96L34 whole entry): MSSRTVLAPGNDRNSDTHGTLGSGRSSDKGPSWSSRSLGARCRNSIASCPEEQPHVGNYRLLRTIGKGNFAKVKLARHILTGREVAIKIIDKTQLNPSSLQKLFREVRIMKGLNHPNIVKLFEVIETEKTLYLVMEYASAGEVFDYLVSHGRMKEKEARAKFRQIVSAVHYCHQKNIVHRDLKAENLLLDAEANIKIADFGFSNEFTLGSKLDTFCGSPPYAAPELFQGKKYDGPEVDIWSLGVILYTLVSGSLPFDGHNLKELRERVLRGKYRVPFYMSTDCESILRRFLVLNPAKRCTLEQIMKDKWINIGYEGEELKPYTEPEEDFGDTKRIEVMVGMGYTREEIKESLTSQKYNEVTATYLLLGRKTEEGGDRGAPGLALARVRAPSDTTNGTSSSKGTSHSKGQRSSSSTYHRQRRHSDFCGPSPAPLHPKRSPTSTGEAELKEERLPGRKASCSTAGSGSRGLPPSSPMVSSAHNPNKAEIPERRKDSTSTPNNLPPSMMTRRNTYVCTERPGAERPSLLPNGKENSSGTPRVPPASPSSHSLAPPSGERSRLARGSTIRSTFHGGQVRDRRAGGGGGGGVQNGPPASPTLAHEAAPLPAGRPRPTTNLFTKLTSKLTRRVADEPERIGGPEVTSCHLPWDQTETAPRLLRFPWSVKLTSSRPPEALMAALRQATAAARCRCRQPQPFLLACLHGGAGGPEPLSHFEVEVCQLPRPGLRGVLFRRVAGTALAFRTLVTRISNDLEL
T19 sequence (P21802 22-821): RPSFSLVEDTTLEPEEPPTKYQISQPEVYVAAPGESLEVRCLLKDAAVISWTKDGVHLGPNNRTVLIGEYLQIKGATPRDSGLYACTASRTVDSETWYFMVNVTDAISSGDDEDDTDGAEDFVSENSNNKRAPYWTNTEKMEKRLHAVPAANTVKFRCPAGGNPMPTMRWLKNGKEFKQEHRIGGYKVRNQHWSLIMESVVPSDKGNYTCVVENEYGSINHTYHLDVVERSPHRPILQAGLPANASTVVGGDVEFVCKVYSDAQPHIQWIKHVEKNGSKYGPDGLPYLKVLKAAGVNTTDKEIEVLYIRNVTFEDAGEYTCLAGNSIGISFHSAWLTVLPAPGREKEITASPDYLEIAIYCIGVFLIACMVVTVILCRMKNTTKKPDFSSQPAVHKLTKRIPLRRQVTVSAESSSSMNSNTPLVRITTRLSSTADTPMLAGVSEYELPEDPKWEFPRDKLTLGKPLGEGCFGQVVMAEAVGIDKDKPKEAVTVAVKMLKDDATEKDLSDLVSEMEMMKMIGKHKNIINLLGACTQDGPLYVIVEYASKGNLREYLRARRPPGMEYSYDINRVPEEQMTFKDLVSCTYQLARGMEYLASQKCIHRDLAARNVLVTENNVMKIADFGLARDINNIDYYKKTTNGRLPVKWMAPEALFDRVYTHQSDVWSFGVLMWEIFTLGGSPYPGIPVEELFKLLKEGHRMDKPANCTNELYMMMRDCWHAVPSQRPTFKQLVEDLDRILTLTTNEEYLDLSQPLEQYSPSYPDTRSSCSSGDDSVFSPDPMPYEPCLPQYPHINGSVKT

C#Cc1cccc(Nc2ncnc3cc(OC)c(OCCCN4CCOCC4)cc23)c1 [NRC-2694, N-(3-ethynylphenyl)-7-methoxy-6-[3-(4-morpholinyl)propoxy]-4-quinazolinamine]
remaining binding at 10 µM [1]: 34% | remaining binding at 10 µM [2]: 35% | remaining binding at 10 µM [3]: 23% | remaining binding at 10 µM [4]: 63% | remaining binding at 10 µM [5]: 14% | remaining binding at 10 µM [6]: 56% | remaining binding at 10 µM [7]: 78% | remaining binding at 10 µM [8]: 63% | remaining binding at 10 µM [9]: 92% | remaining binding at 10 µM [10]: 37% | remaining binding at 10 µM [11]: 0.55% | remaining binding at 10 µM [12]: 67% | remaining binding at 10 µM [13]: 9.6% | remaining binding at 10 µM [14]: 55% | remaining binding at 10 µM [15]: 69% | remaining binding at 10 µM [16]: 14% | remaining binding at 10 µM [17]: 0% | remaining binding at 10 µM [18]: 0% | remaining binding at 10 µM [19]: 100% | remaining binding at 10 µM [20]: 74% | remaining binding at 10 µM [21]: 95% | remaining binding at 10 µM [22]: 100% | remaining binding at 10 µM [23]: 100% | remaining binding at 10 µM [24]: 92% | remaining binding at 10 µM [25]: 42% | remaining binding at 10 µM [26]: 66% | remaining binding at 10 µM [27]: 100% | remaining binding at 10 µM [28]: 37% | remaining binding at 10 µM [29]: 19% | remaining binding at 10 µM [30]: 4.6% | remaining binding at 10 µM [31]: 86% | remaining binding at 10 µM [32]: 41% | remaining binding at 10 µM [33]: 39% | remaining binding at 10 µM [34]: 53%
